Measured values published in patent publication EP0366632A1, “Alternative energy substrates” (priority 1988, dated 1990).
Several values for one entry are separate records, joined by “and”; a condition that tells them apart may be missing. Equal entries are not always repeated.

How the values were obtained:
[1] = test system: Staphylococcus aureus ATCC 6535; assay: Microorganism count in 2% and 0.2% ester emulsions (Example 13); type: cell-based
Method: Both of the emulsions included egg-yolk phospholipide 1,2% and sterile water, in addition to ester. The emulsions were prepared aseptically, by emulsifying sterile-filtered ester with a sterilized dispersion of egg-yolk phospholipids.
Aliquots of these emulsions were diluted with phosphate buffer (0.01 M, pH=7.0), in the proportions of 1 and 100 in respective emulsions. Staphylococcus aureus ATCC 6535 was then added to the emulsions. The samples were then incubated at +37°C for 20 hours. The microorganism count was carried out after 1-5 minutes, 2 and 20 hours, in the manner described in microbiological literature. Parallel with the above experiments, a check was made on the phospholipid solution 1,2% and TSB (Tryptone soya broth), by adding Staphylococcus aureus ATCC 6535. The latter substrate was tested to ascertain whether the controlled microorganisms were viable. […] The starting concentration was about 5x10³. […] After 2 hours, the number of microorganisms was 0 and 10 respectively, and after 20 hours 0 and 0 respectively. In the samples containing 5-methyl-3-oxo-hexanoic acid ethyl ester with concentrations of 2% and 0.2%, the number of microorganisms per ml present after 1-5 minutes was 10⁴, after 2 hours 0 and 100 respectively, and after 20 hours 0 and 0 respec tively.

Energy density = type: physicochemical
[2] = Cold storage of fat emulsion (Intralipid) with ester admixture: visual inspection, pH, mean particle size; type: physicochemical; details: for Mean particle size, X / pH / Mean particle size (single readings, Coulter nanosizer): Example 32: Intralipid 20%; for pH: after 5 day storage; for Mean particle size (single readings, Coulter nanosizer): listed as 5-methyl-3-oxo-pentanoic acid ethyl ester; for emulsion quality, daily visual inspection: Example 32: mother concentrate in Intralipid 20%; for emulsion quality, daily visual inspection / emulsion stability, daily visual inspection: +5°C, 5 days
Method: A so-called mother concentrate was prepared by dissolving 6 g of egg-yolk phospholipids in 40 g of 4-methyl-3-oxo-pentanoic acid ethyl ester at +60°C, while stirring. 34 g of 99% ethyl alcohol were then added to the solution, whereafter the solution was cooled to room temperature and dispensed into 20 ml glass flasks. Nitrogen gas was then bubbled through the liquid and the flasks then stoppered and capsuled. The bottles were then autoclaved at +120°C and at 118 kPa for 20 minutes. A 10% fat emulsion for parenteral nutrient administration (Intralipid^R retailed by KabiVitrum AB, Stockholm) was added to the preparation under strict asceptic conditions, to a 4-methyl-3-oxo-pentanoic acid ethyl ester concentration of 0.2, 1 and 3% respectively. The emulsion was shaken for 5 minutes in a shaking machine and then placed in a cold environment (+5°C). The emulsion was thereafter observed over a 5 day period, wherewith a daily inspection was carried out to assess the formation of oil droplets, creaming or oil separation. The assessment was made in comparison with a known emulsion for parenteral use (Intralipid^R 10%). […] Subsequent to 5 days storage, an analysis was made of the pH and mean particle size in a Coulter nanosizer. The following values were obtained:
(§1) A so-called mother concentrate produced by dissolving 6 g egg-yolk phospholipids in 40 g of 4-methyl-3-oxo-pentanoic acid-ethyl ester at +60°C, while stirring the system. 34 g of 99% ethyl alcohol were then added to the solution, whereafter the solution was cooled to room temperature and dispensed into 20 ml glass flasks. Nitrogen gas was perculated through the contents of the flasks, and the flasks subsequently stoppered and fitted with capsules. The flasks were then autoclaved at 120°C and 118 kPa over a period of 20 minutes. This preparation was added to a 20% fat emulsion (Intralipid^R) under strict aseptic conditions, such that the concentation of 4-methyl-3-oxo-pentanoic acid ethyl ester was 0.2 and 1 and 3% respectively. The emulsion was shaken for 5 minutes in a shaker and then placed in a cold environment (5°C). The emulsion was inspected over a period of 5 calender days, wherewith a visual inspection was carried out daily in order to ascertain the occurrence of any oil droplets that may form, creaming or oil separation. The assay was effected by comparison with a known emulsion for parenteral use (Intralipid^R 20%). […] The pH of the emulsion was measured after a 5 day storage period. The mean particle size was measured in a Coulter^R nanosizer. The following values were obtained:
as §1, with “prepara tion” for “preparation”, “10%” for “20%”, “10%).” for “20%).”, “obtained: […]” for “obtained:”

[3] = as above; type: physicochemical; details: Example 33: pure ester in 20 percent emulsion, 5%, +5°C, 5 days
[4] = Total parenteral nutrition (TPN) with ester as energy substitute in rats; details: 9 days
Method: Sprague-Dawley male rats weighing 180-190 g were sur­gically fitted with a central vein catheter protected by a saddle (Roos et al, 1981). Total parenteral nutrition (TPN) was administered in accordance with the following standard formula: Fat: 8 g/kg body weight and 24 hours Nitrogen: 1,2 g/kg body weight and 24 hours Total energy supplied: 1257 kJ/kg body weight and 24 hours Liquid: 300 ml/kg body weight and 24 hours The glucose to fat ratio was 70-30 energy percent. The energy percentage obtained from the energy substitutes during the test period corresponded to about 5% NPC. The TPN-mixture was obtained by mixing Vamin^R 14 (a solution of essential and non-essential amino acids for paren­teral nutrient administration, retailed by KabiVitrum AB) with no electrolytes, glucose solution 50% and Intralipid^R 20% in suitable proportions and adding adequate quantities of electrolytes, trace minerals and vitamins. Subsequent to infusing the rats continuously for one week (20 hours/day), the animals were divided randomly into three groups, with 6 animals in each group. The animals of one group were administered with the same TPN-formula as that previously mentioned (the reference group). […] The compounds were given in a dosage of 2 g/kg body weight and 24 hours in a yield corres­ponding to equivalent glucose energy quantities. In other respects, the TPN-program or formula was the same as that for the reference group. The experiment was then continued for a further 9 days, during which the weights of the animals were recorded daily and urine collected and frozen. At the end of the test period, the rats were killed by heart puncture while under a pentobarbital anesthetic and an autopsy was performed on the rat carcasses with microscopic examination. The body organs were sent to a laboratory for pathological assay.

Question: For CCOC(=O)CC(=O)CC(C)C [5-methyl-3-oxo-hexanoic acid ethyl ester], which number of microorganisms ([1]; 0.2%, after 2 hours) is on record?
Answer: 100 per ml

Question: What about the number of microorganisms ([1]; 0.2%, after 20 hours) of the same compound?
Answer: 0 per ml

Question: And the number of microorganisms ([1]; 2%, after 2 hours)?
Answer: 0 per ml

Question: And the number of microorganisms ([1]; 2%, after 20 hours)?
Answer: 0 per ml

Question: And the energy density (Energy density)?
Answer: 29.24 kJ/g

Question: And the “Mean particle size, X” value ([2]; 0.2% admix)?
Answer: 322

Question: What about the pH ([2]; 0.2% admix) of the same compound?
Answer: 7.4

Question: And the “Mean particle size (single readings, Coulter nanosizer)” value ([2]; 0.2% admix)?
Answer: 317 and 321 and 324

Question: What about the “Mean particle size, X” value ([2]; 1% admix) of the same compound?
Answer: 319

Question: What about the pH ([2]; 1% admix) of the same compound?
Answer: 7.0

Question: What about the “Mean particle size (single readings, Coulter nanosizer)” value ([2]; 1% admix) of the same compound?
Answer: 317 and 324 and 321

Question: What about the “Mean particle size, X” value ([2]; 3% admix) of the same compound?
Answer: 324

Question: What about the pH ([2]; 3% admix) of the same compound?
Answer: 6.7

Question: What about the “Mean particle size (single readings, Coulter nanosizer)” value ([2]; 3% admix) of the same compound?
Answer: 324 and 328 and 321

Question: What about the “emulsion quality, daily visual inspection” value (from here on “emulsion quality”) ([2]; 0.2% addition) of the same compound?
Answer: No change in quality

Question: What about the “emulsion quality” value ([2]; 1% addition) of the same compound?
Answer: No change in quality

Question: And the “emulsion quality” value ([2]; 3-percent mixture)?
Answer: fully acceptable over the first 4 days

Question: And the “emulsion stability, daily visual inspection” value (shortened to “emulsion stability”) ([2]; Example 33: pure ester in 10% fat emulsion (Intralipid), 0.2%)?
Answer: stable over the whole of the test period

Question: And the “emulsion stability” value ([2]; Example 33: pure ester in 10% fat emulsion, 1%)?
Answer: stable over the whole of the test period

Question: And the “emulsion stability” value ([2]; Example 33: pure ester in 10% fat emulsion, 3%)?
Answer: stable over the whole of the test period

Question: What about the “emulsion stability” value ([2]; Example 33: pure ester in 10% fat emulsion, 5%) of the same compound?
Answer: stable over the first 2 days

Question: And the “emulsion stability” value ([2]; Example 33: pure ester in 20 percent emulsion, 0.2%)?
Answer: remained stable over the whole of the test period

Question: And the “emulsion stability” value ([2]; Example 33: pure ester in 20 percent emulsion, 1%)?
Answer: remained stable over the whole of the test period

Question: And the “emulsion stability” value ([2]; Example 33: pure ester in 20 percent emulsion, 3%)?
Answer: remained stable for 1 day

Question: What about the “emulsion stability” value [3] of the same compound?
Answer: unstable

Question: What about the “toxicity at the dosages tested” value ([4]; 2 g/kg body weight and 24 hours) of the same compound?
Answer: non-toxic

Question: What about the “average growth per day during the whole of the test period” value ([4]; ester 2 g/kg body weight and 24 hours in place of equivalent glucose energy) of the same compound?
Answer: 2.8 ± 0.2 g
